{"source": "patent US20240083946A1", "about": "“SELF-ASSEMBLING PEPTIDES, NANOFIBERS, AND METHODS OF USE” (The Board of Regents of the University of Oklahoma, priority 2021, published 2024)", "system": "OVCAR-8 ovarian cancer cells", "test": "Toxicity of peptide sets and individual peptides to OVCAR-8 cells (relative ATP, live/dead imaging)", "type": "cell-based", "conditions": "6 hours, FIGS. 6A-B", "protocol": "Image analysis indicated green cells were living and red cells were dead (color not shown).\nIncubation of the peptides with OVCAR-8 ovarian cancer cells were incubated with the peptides of the [AA], [II], [WW] peptide sets. […] Red fluorescence (ethidium homodimer-1) was associated with loss of plasma membrane integrity whereas the green fluorescence correlated with intracellular esterase activity of metabolically active cells (color not shown in figures). Pyroptosis is a newly identified cell death modality characterized by the formation of large bubbles on the plasma membrane and cell swelling. Recently pyroptosis has been classified as a regulated cell death (RCD) by Nomenclature Committee on Cell Death (NCCD). Peptide-treated OVCAR-8 cells indicated pyroptotic morphology. One of the pathways mediating pyroptosis is through cleavage of caspase-3.", "data": [{"substance": "KFFWWK", "values": [{"measurement": "toxicity to OVCAR-8 cells", "result": "toxicity"}]}]}
